Reference: patent publication US8871751B2, “Compositions and methods relating to nuclear hormone and steroid hormone receptors including inhibitors of estrogen receptor alpha-mediated gene expression and inhibition of breast cancer” (The Board of Trustees of the University of Illinois, priority 2008, dated 2014)
Several values for one entry are separate records, joined by “and”; a condition that tells them apart may be missing. Equal entries are not always repeated. Entries after “also recorded” stand apart in the source; their conditions may differ. Where two headings read alike, the source gives them in different places.

Assays:
[1] = test system: BG-1 ovarian cancer cells; assay: BG-1 cell growth assay (MTS); assay type: cell-based; conditions: for IC50: 10 pM E2, 5 days, MTS, read-out: IC50 for inhibition of E2-dependent growth of BG-1 cells
Method: ERα positive BG-1 ovarian cancer cells (44) were provided by Prof. K. Korach. ERα negative MDA-MB-231 human breast cancer cell lines were provided by Prof. A. Nardulli. The cells are maintained in phenol red-free MEM medium with 5% calf serum and antibiotics. 4 days before hormone induction, cells are switched to phenol red-free MEM medium containing 5% 2XCD-treated calf serum for BG-1 cells. For BG-1 cell growth assays, 250 cells in 100 μl of phenol-red-free medium were added to wells of a 96-well plate. After 24 h, the indicated concentrations of the test compounds and 10 pM E2 or ethanol vehicle were added to each well. Compounds in DMSO were diluted in medium so that the DMSO concentration was not greater than 0.5%. Cell viability assays were carried out 5-6 days later using Promega CellTiter 96®Aqueous One Solution Cell Proliferation Assay (Promega, Wis.).

ERα [2] = biological target: T1, ERα (Homo sapiens, UniProt P03372); assay: PI-9 mRNA induction in tamoxifen-resistant MCF7ERαHA cells (qRT-PCR); assay type: cell-based; set-up: endogenous in cells; conditions: Dox
T1 sequence (P03372 1-595): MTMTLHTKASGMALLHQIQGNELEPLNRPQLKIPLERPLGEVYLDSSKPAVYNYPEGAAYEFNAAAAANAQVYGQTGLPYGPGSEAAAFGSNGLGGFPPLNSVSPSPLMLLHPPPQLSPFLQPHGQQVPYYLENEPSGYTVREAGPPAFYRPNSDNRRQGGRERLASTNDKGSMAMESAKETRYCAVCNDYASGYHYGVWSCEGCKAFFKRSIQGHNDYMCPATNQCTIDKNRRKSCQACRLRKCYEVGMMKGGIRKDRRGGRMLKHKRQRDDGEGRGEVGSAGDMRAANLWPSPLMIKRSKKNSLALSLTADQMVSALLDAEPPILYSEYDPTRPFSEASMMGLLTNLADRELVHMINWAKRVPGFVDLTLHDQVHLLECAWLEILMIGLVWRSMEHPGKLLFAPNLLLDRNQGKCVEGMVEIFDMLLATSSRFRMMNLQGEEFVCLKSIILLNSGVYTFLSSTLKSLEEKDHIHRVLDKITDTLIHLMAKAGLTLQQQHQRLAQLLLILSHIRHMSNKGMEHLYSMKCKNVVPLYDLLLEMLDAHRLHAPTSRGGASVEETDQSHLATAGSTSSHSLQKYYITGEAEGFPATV
Source text: (§1) A model for tamoxifen-resistant breast cancers that overexpress ERα is MCF7ERαHA cells, which is a tetracycline-inducible MCF-7 model in which doxycycline (Dox) induces overexpression of ERα (40,41). In contrast to MCF-7 cells, in these cells Tam and OHT are potent agonists (2,42) and OHT, which stabilizes ERα, induced proteinase inhibitor 9 (PI-9) mRNA and protein more effectively than E2 (2,43). MCF7ERαHA cells were maintained in 10% 6XCD-treated FBS (40,41). All cells were in 0.1% DMSO vehicle and contained the indicated concentrations of TPBM added at the same time as the E2 or OHT. To induce PI-9 mRNA, the cells were treated with 0.5 μg/ml doxycycline to induce ERα and ethanol vehicle, 100 pM E2 or 500 pM OHT for 24 h, mRNA was extracted and PI-9 mRNA levels were determined by quantitative RT-PCR as described (2).
(§2) Endogenous Gene Expression. MCF-7 cells or MCF7ERαHA cells were maintained for 4 days in medium containing 5% CD calf serum (MCF-7 cells) or 10% 6×CD-FBS (MCF7ERαHA cells). In assays of TPSF inhibition of PI-9 induction, cells were plated, incubated for 24 hours in the indicated concentrations of TPSF and then maintained 4 hours with and without E2, with and without TPSF. To induce ERα, MCF7ERαHA cells were also maintained in 0.5 μg/ml Dox for 24 hours prior to addition of E2 or OHT with or without TPSF. For induction of cyclin D1, 24 hours after plating the cells, E2 with and without TPSF was added, the cells were maintained for 24 hours, RNA was extracted and mRNA levels were determined by quantitative RT-PCR as described (19, 26). Actin mRNA levels were used as the qRT-PCR internal standard. The primers and sequences used in qRT-PCR were as follows.

ERα [3] = biological target: T1, ERα; assay: pS2 mRNA induction in MCF7ERαHA cells; assay type: cell-based; set-up: endogenous in cells; conditions: 10 μM, Dox, 100 pM E2, 24 h
Source text: as §1
Saturating E2 (100 pM, FIG. 7A) and OHT (500 pM, FIG. 7B) induced PI-9 mRNA by 150 and 500 fold, respectively. […] The less complete inhibition of PI-9 induction in the OHT-treated cells likely results from the ˜4 fold higher level of ERα after OHT treatment than after E2 treatment (FIG. 7C). The PI-9 gene is representative of the many genes that contain complex estrogen response elements including ERE half sites. To confirm that TPBM inhibits expression of an endogenous gene that contains a near consensus ERE we used the pS2 gene. […]

NF-κB = assay: NF-κB-mediated induction of IL-8 mRNA by TNF-α in MCF-7 cells; assay type: cell-based, human
Method: FIG. 14 illustrates results of testing for specific inhibition of E2-ERα-mediated gene expression. The effects of TPSF on an NF-κB regulated gene, IL-8, were tested in MCF-7 cells maintained for 24 hours in medium containing 10 ng/ml TNF-α alone or TNF-α and 30 μM TPSF. RNA was extracted and IL-8 mRNA levels were measured by quantitative (q)RT-PCR. Data shown is the average of 3 experiments±SEM.
as §2

Which results are given for `CN1CCC(C#N)c2ccccc21` (stereo not shown) [Compound 1529]?
IC50 [1]: ~5 µM; concentration inhibiting growth of BG-1 cells in the absence of E2 ([1]; no E2, 5 days): > 5 µM

Which results are given for `Cn1c(=O)c2nc(CSCc3ccccc3)[nH]c2n(C)c1=O` [Compound 95910, 8-Benzylsulfanylmethyl-1,3-dimethyl-3,7-dihydro-purine-2,6-dione]?
inhibition of OHT-ERα induction of PI-9 mRNA (ERα [2]; 30 μM, 500 pM OHT): 48%; IC50 (ERα [2]; 100 pM E2, 24 h, read-out: IC50 for inhibition of E2-ERα induction of PI-9 mRNA): 9 µM and 8.5 µM; potency for inhibiting E2-ERα-dependent cell growth relative to nonspecific toxicity [1]: > 10 fold; IC50 ([1]; Homo sapiens, BG-1, 120 h): 5 µM; effect on E2-independent growth of BG-1 cells ([1]; no E2, 5 days): had no effect; reduction of induction of pS2 mRNA (ERα [3]): 50%; induction of pS2 mRNA (ERα [3]; 24±3 fold without TPBM): 12±2 fold

What does the source list for `Cn1c(=S)c2[nH]c(SCCCC(=O)c3ccc(F)cc3)nc2n(C)c1=O` [TPSF, Butyrophenone, p-fluoro-4-(1,2,3,6,-tetrahydro-1,3-dimethyl-2-oxo-6-thionopurin-8-ylthio)]?
effect on NF-κB-mediated induction of IL-8 mRNA by TNF-α (NF-κB; 30 μM, 10 ng/ml TNF-α, 24 h): no effect; also recorded: absence of an effect; IC50 (NF-κB; Homo sapiens, MCF7, TNF-α, IL-8 mRNA, read-out: IC50 for inhibition of NF-κB gene expression): > 30 µM; effect on E2-mediated induction of PI-9 mRNA (ERα [2]; 10 μM, 100 pM E2): blocked; effect on OHT-ERα induction of PI-9 mRNA (ERα [2]; 10 μM, 500 pM OHT): blocked
